We go through four compounds from PMC5472784, “Pyrazinamide and derivatives block ethylene biosynthesis by inhibiting ACC oxidase” (Nature Communications, 2017).

Where two headings read alike, the source gives them in different places.

For experiment [1], the target named is T1, AtACO2 (Arabidopsis thaliana, UniProt Q41931). The experiment can be described thus: ACO enzymatic activity assay and kinetic analysis (ethylene by GC-FID). It counts as biochemical.
The test system of experiment [2] is ethylene production of Arabidopsis seedlings. The experiment in a line: Measurement of ethylene production of seedlings (GC-FID). Conditions: for ethylene production in Arabidopsis seedlings: Supplementary Fig. 10. In kind it is in vivo, Arabidopsis thaliana. As for the experimental part:
Ethylene production was determined as follows: 30 3-day-old etiolated or 5-day-old green seedlings of Col-0, eto1-2 or other mutants were selected randomly and sealed in a 30 ml vial containing 3 ml liquid MS medium supplemented with indicated treatments. The vial was sealed with a rubber stopper for 24 h at 22 °C prior to ethylene sampling. A 250 μl sample of the headspace gas was withdrawn using a gas-tight syringe from each chamber through the septum stopper, and injected into a gas chromatograph (Agilent 6890NGC, Agilent Technologies, USA) that was equipped with a HP-PLOTQ column (40 m × 530 μm × 40 μm) and a flame ionization detector (FID)[44]. Separations were carried out at 60 °C using N2 as the carrier gas. The area of the ethylene peak was integrated with Agilent Chemstation and results were expressed as the average relative ethylene production (%) of each treatment.

The target in experiment [3] is T1, AtACO2. The experiment in a line: Isothermal titration calorimetry. It counts as binding. Conditions: ITC, 25 °C, read-out: dissociation constant (KD), AtACO2. As for the experimental part: (§1) ITC experiments were performed using a MicroCal iTC200 (GE Healthcare) at 25 °C. Small molecules and proteins were in the same buffer containing 25 mM Bis–Tris (pH 6.0), 150 mM NaCl, 0.1 mM ZnCl2 (or 0.2 mM FeSO4 for POA and AtACO2). The concentration of small molecules in the syringe was 1 mM, and the concentration of proteins in the cell was 90 μM. Data were analysed with a one-site model using Origin 7.0 (OriginLab).
A general note: Isothermal titration calorimetry measures the heat released or taken up as one component is titrated into another.

The subject of experiment [4] is Arabidopsis PSB-D suspension cultured cells. The experiment in a line: Ethylene production of suspension cultured cells. In kind it is cell-based, Arabidopsis thaliana.
Experiment [5] concerns dioxygenase for auxin oxidation (DAO). The experiment can be described thus: Isothermal titration calorimetry. The following applies: ITC. It counts as binding, Arabidopsis thaliana. As for the experimental part:
as §1

Experiment [6] deals with Arabidopsis etiolated seedlings (Col-0, eto1-2, ctr1-1, ein2-5). The experiment can be described thus: Ethylene response phenotype of 3-day-old etiolated seedlings (hypocotyl and root length, root hairs, root cells). In kind it is in vivo, Arabidopsis thaliana. Conditions: 3-day-old etiolated eto1-2 seedlings, MS medium with compound (50 μM shown).
The target in experiment [7] is T1, AtACO2. The experiment in a line: Fragmentation (stability) of purified AtACO2. Conditions: 200 μM POA, 30 °C. As for the experimental part:
Purified AtACO2 was incubated with or without 200 μM POA at 30 °C in a buffer containing 50 mM MOPS, pH 7.2, 10% glycerol (v/v), 5 mM ascorbic acid, 20 mM NaHCO3, 0.02 mM FeSO4, 1 mM ACC and 1 mM DTT. At the indicated time point, the reaction was terminated by the addition of SDS-PAGE loading buffer followed by boiling. Fragmentation of AtACO2 was visualized on a SDS-PAGE gel.

The target in the next experiment is AtACO3 (Arabidopsis thaliana, UniProt O65378). The experiment in a line: ACO enzymatic activity assay, kinetic analysis. It counts as biochemical. The following applies: varying ACC, 200 μM POA, unit inferred. As for the experimental part: (§2) The activity was performed following previously published protocol. The reaction mixture contains 50 mM MOPS, pH 7.4, 10% glycerol (v/v), 5 mM ascorbic acid, 20 mM NaHCO3, 0.02 mM FeSO4, 1 mM DTT, and different amounts of ACC and PZA/POA as indicated. The reaction was initiated by the addition of 5 μg ACO protein and immediately sealed with a rubber stopper. After incubation at 30 °C for 30 min with shaking, 100 μl of gas product was withdrawn by syringe from the headspace of the vial and injected into the GC-FID. The area of the ethylene peak was integrated with Agilent Chemstation and results were analysed using the program GraphPad Prism (version 5.01; GraphPad Software Inc., San Diego, CA, USA). The initial velocities were plotted against starting ACC concentrations in a double-reciprocal manner and the kinetic parameters were deduced.

The next experiment has as its target T2, AtACO5 (Arabidopsis thaliana, UniProt Q0WPW4).
T2 sequence (Q0WPW4 1-307): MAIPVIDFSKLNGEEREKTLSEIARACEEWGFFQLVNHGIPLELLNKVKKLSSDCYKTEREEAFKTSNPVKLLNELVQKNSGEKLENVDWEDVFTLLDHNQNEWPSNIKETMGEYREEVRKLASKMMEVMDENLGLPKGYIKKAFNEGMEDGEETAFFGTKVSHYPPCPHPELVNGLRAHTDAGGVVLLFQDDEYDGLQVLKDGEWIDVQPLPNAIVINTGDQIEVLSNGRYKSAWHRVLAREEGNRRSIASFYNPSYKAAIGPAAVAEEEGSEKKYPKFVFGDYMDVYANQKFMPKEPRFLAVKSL
The experiment can be described thus: ACO enzymatic activity assay, kinetic analysis. In kind it is biochemical. Conditions: varying ACC, 200 μM POA, unit inferred. As for the experimental part: as §2

The next experiment addresses AtACO4 (Arabidopsis thaliana, UniProt Q06588). The experiment in a line: ACO enzymatic activity assay, kinetic analysis. It counts as biochemical. The following applies: varying ACC, 200 μM POA, unit inferred. As for the experimental part: as §2
In another experiment the target is T3, AtACO1 (Arabidopsis thaliana, UniProt Q9ZUN4).
T3 sequence (Q9ZUN4 1-310): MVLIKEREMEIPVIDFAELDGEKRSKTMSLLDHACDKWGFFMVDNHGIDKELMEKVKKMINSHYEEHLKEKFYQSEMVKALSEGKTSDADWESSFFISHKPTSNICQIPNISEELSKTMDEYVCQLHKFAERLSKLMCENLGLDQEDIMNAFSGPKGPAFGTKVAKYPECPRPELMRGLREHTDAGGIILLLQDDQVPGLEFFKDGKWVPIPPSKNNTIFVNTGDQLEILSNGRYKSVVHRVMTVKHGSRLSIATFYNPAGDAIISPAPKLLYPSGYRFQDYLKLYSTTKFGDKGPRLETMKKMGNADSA
The experiment in a line: ACO enzymatic activity assay, kinetic analysis. It counts as biochemical. Conditions: varying ACC, 200 μM POA, unit inferred. As for the experimental part: as §2

Experiment [8] concerns the target T4, gibberellin C2 oxidase 2 (GA2OX2) (Arabidopsis thaliana, UniProt Q9XFR9).
T4 construct: GST; made in house
T4 sequence (Q9XFR9 1-341): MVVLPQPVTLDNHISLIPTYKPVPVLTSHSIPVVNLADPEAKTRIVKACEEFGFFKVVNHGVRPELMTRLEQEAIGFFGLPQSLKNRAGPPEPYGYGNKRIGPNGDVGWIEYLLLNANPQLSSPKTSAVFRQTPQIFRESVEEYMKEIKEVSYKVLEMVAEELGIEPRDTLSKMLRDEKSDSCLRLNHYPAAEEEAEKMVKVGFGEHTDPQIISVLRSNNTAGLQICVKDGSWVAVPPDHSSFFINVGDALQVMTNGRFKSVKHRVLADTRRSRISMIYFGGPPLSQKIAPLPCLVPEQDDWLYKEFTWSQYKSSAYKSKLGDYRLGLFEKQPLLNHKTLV
The experiment in a line: Isothermal titration calorimetry. It counts as binding. Conditions: ITC. As for the experimental part: as §1

The target in experiment [9] is T5, anthocyanidin synthase (ANS) (Arabidopsis thaliana, UniProt Q96323).
T5 construct: GST; made in house
The experiment can be described thus: Isothermal titration calorimetry. In kind it is binding. The following applies: ITC. As for the experimental part:
as §1

The target in experiment [10] is the other four ACO proteins in Arabidopsis (AtACO1, AtACO3, AtACO4 and AtACO5). The experiment in a line: ACO kinetic analysis, span over the other four ACO proteins. In kind it is biochemical, Arabidopsis thaliana. The following applies: span over AtACO1, 3, 4, 5. As for the experimental part: as §2

T1 sequence (Q41931 1-303): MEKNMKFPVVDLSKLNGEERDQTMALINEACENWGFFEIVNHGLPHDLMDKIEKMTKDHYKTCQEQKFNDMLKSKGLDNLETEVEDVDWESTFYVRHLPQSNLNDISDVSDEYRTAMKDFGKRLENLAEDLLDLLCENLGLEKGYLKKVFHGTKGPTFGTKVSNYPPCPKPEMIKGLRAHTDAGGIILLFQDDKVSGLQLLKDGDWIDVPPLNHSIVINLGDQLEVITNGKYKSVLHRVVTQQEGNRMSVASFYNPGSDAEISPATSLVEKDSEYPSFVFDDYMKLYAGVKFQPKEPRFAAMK
T5 sequence (Q96323 whole entry): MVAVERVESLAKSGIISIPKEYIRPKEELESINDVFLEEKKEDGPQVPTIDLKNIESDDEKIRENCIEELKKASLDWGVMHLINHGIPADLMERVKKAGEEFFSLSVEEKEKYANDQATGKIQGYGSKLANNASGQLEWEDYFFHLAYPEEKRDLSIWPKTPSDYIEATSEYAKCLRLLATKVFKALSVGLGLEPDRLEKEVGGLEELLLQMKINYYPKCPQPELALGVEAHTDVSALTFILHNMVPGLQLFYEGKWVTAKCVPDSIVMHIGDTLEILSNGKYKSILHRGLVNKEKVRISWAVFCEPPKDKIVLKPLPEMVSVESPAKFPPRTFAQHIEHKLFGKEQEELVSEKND
AtACO3, sequence (O65378 whole entry): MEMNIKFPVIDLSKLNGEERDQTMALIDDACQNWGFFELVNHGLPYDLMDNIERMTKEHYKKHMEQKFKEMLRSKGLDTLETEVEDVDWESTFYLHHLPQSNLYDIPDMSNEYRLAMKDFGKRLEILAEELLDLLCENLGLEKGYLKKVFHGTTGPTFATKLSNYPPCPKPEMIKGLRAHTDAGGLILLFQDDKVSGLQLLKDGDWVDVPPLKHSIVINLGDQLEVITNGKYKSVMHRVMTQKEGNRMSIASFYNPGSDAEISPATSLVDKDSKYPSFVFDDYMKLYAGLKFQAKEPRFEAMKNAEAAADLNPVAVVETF
AtACO4, sequence (Q06588 whole entry): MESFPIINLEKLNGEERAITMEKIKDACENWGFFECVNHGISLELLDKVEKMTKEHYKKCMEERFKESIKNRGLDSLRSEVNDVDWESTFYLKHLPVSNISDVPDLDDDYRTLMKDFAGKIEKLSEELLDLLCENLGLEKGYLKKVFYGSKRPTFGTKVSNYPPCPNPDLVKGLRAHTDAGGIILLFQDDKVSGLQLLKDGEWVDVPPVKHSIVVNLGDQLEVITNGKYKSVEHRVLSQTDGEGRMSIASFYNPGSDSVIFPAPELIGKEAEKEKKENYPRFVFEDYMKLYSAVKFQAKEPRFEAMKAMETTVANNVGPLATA

Regarding `O=C(O)c1ccccn1` [2-PA, 2-picolinic acid], on AtACO2 [1] (200 μM), the “inhibition effect on AtACO2 compared with POA” value is reported as “stronger than that of POA” and the “relative AtACO2 activity treated with POA derivatives” value is on record as “directly inhibited”. The “ethylene production in Arabidopsis seedlings” value in experiment [2] was “remarkably inhibited”. For the same compound, on AtACO2 [3] (in the presence of Zn2+), the Kd was found to be 2.8 µM. For the same compound, the “ethylene production in suspension cultured cells” value in experiment [4] is “remarkably inhibited”.
Regarding `CC(C)(N)C(=O)O` [AIB, α-aminoisobutyric acid, reference compound], at AtACO2 [1] (200 μM), the “inhibition effect on AtACO2 compared with POA” value is reported as “much weaker inhibition effect than POA”.
Regarding `O=C(O)c1cnccn1` [POA, pyrazinecarboxylic acid], the “interaction with DAO” value in [5] was “no interaction”. Moreover, the “short-root and short-hypocotyl phenotype of eto1-2” value in experiment [6] is “specifically suppressed”. At AtACO2 [7], the “stability of purified AtACO2 protein” value is given as “did not obviously change”. For the same compound, the Ki on AtACO3 was 187 ± 54.5 µM; on AtACO5, 722 ± 536 µM; on AtACO4, 195 ± 73.3 µM; on AtACO1, 317 ± 90.4 µM; on AtACO2 [1] (Lineweaver–Burk plots, varying ACC, 100, 200 or 300 μM POA, error represents s.d., read-out: Ki, AtACO2 inhibition), 89.8 ± 18.3 µM; in experiment [10], 187 to 722 µM. Besides, at AtACO2 [1] (double-reciprocal plots), the “mode of inhibition of ACO” value is “competitive inhibitor”. For the same compound, the IC50 at AtACO2 [1] (recombinant AtACO2, ethylene by GC-FID, read-out: IC50, inhibition of AtACO2 activity) turned out to be 72.1 ± 1.11 µM. For the same compound, in experiment [2] (100 μM ACC, 500 μM compound, 24 h), the “ACC-induced ethylene production of Col-0 seedlings” value is listed as “inhibited”. Moreover, the “interaction with GA2OX2” value in experiment [8] is listed as “no interaction”. The Kd on AtACO2 [3] (in the presence of Fe2+) was 14.8 µM; on AtACO2 [3] (in the presence of Zn2+), 10.2 µM. Moreover, in [9], the “interaction with ANS” value is reported as “no interaction”.
As to `NC(=O)c1ccccn1` [2-picolinamide], in [2], the “ethylene production in Arabidopsis seedlings” value is recorded as “remarkably inhibited”. For the same compound, in experiment [4], the “ethylene production in suspension cultured cells” value is recorded as “remarkably inhibited”.

As a reminder, the Kd is the constant that tells how readily two partners part at equilibrium. Broadly, the Ki is the dissociation constant of the complex between target and ligand, obtained from inhibition or displacement. The IC50 is the concentration that gives 50% inhibition.
